Reference: the supplement of paper PMC10307832

Experiments:
Assay in all cases: relative viability (nuclei count vs DMSO), 5 days (fraction); higher = more cells survive
[1] = compound: CNC(=O)c1cc(Oc2ccc(NC(=O)Nc3ccc(Cl)c(C(F)(F)F)c3)cc2)ccn1 [Sorafenib]
In short: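 Lung cancer cell lines received five library-drug doses (not always all listed) spaced by √10, pinned on vehicle-anchored 1536-well plates after an overnight stay at 37 °C. Five days later, with no medium change, nuclei were Hoechst-stained, imaged at 4× and counted with MetaXpress. Viability is treated-well nuclei relative to vehicle-well nuclei, as a median across plates. Passing plates had control CV below 25% and at least one doubling.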

[2] = compound: CNC(=O)c1cc(Oc2ccc(NC(=O)Nc3ccc(Cl)c(C(F)(F)F)c3)cc2)ccn1 [Sorafenib] + C[C@@H](Oc1cc(-c2cnn(C3CCNCC3)c2)cnc1N)c1c(Cl)ccc(F)c1Cl [Crizotinib] (partner 1 µM)
In short: (§1)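 After 5 days of treatment, lung cancer cells in 1536-well plates were fixed and stained in a single step (final 0.05% Triton X-100, 1% formaldehyde, 1 ug/ml Hoechst) and their nuclei counted on 4× images. Treatment had been applied by pin tool the day after seeding as one drug alone or as a fixed anchor-drug dose with five library-drug doses (not always all listed) in √10 steps. Relative viability is the nuclei count of treated wells divided by that of vehicle wells, and values are medians of duplicate plates.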

[3] = compound: CNC(=O)c1cc(Oc2ccc(NC(=O)Nc3ccc(Cl)c(C(F)(F)F)c3)cc2)ccn1 [Sorafenib] + CC(C)C[C@H](NC(=O)[C@H](Cc1ccccc1)NC(=O)c1cnccn1)B(O)O [Bortezomib] (partner 0.002 µM)
In short: as §1

[4] = compound: CNC(=O)c1cc(Oc2ccc(NC(=O)Nc3ccc(Cl)c(C(F)(F)F)c3)cc2)ccn1 [Sorafenib] + O=C(c1cc(Cc2n[nH]c(=O)c3ccccc23)ccc1F)N1CCN(C(=O)C2CC2)CC1 [Olaparib] (partner 8 µM)
In short: as §1

[5] = compound: CNC(=O)c1cc(Oc2ccc(NC(=O)Nc3ccc(Cl)c(C(F)(F)F)c3)cc2)ccn1 [Sorafenib] + Cc1nc(NC(=O)N2CCC[C@H]2C(N)=O)sc1-c1ccnc(C(C)(C)C(F)(F)F)c1 [Alpelisib] (partner 2 µM)
In short: as §1

[6] = compound: CNC(=O)c1cc(Oc2ccc(NC(=O)Nc3ccc(Cl)c(C(F)(F)F)c3)cc2)ccn1 [Sorafenib] + C[C@]1(O)C[C@@H](c2nc(-c3ccc4ccc(-c5ccccc5)nc4c3)c3c(N)nccn32)C1 [Linsitinib] (partner 1 µM)
In short: as §1

[7] = compound: CNC(=O)c1cc(Oc2ccc(NC(=O)Nc3ccc(Cl)c(C(F)(F)F)c3)cc2)ccn1 [Sorafenib] + CS(=O)(=O)CCNCc1ccc(-c2ccc3ncnc(Nc4ccc(OCc5cccc(F)c5)c(Cl)c4)c3c2)o1 [Lapatinib] (partner 2 µM)
In short: as §1

[8] = compound: CNC(=O)c1cc(Oc2ccc(NC(=O)Nc3ccc(Cl)c(C(F)(F)F)c3)cc2)ccn1 [Sorafenib] + CC1(C)CCC(c2ccc(Cl)cc2)=C(CN2CCN(c3ccc(C(=O)NS(=O)(=O)c4ccc(N[C@H](CCN5CCOCC5)CSc5ccccc5)c(S(=O)(=O)C(F)(F)F)c4)cc3)CC2)C1 [Navitoclax] (partner 0.5 µM)
In short: as §1

[9] = compound: CNC(=O)c1cc(Oc2ccc(NC(=O)Nc3ccc(Cl)c(C(F)(F)F)c3)cc2)ccn1 [Sorafenib] + CS(=O)(=O)N1CCN(Cc2cc3nc(-c4cccc5[nH]ncc45)nc(N4CCOCC4)c3s2)CC1 [Pictilisib] (partner 1 µM)
In short: as §1

[10] = compound: CNC(=O)c1cc(Oc2ccc(NC(=O)Nc3ccc(Cl)c(C(F)(F)F)c3)cc2)ccn1 [Sorafenib] + COc1cc2c(Oc3ccc(NC(=O)C4(C(=O)Nc5ccc(F)cc5)CC4)cc3F)ccnc2cc1OCCCN1CCOCC1 [Foretinib] (partner 0.25 µM)
In short: as §1

What does the source list for EBC-1?
relative viability ([1]; 0.08 µM): 1.05; relative viability ([1]; 0.253 µM): 0.904; relative viability ([1]; 2.53 µM): 0.929; relative viability ([1]; 8 µM): 0.812; relative viability ([2]; first compound 0.08 µM): 0.189; relative viability ([2]; first compound 0.253 µM): 0.176; relative viability ([2]; first compound 2.53 µM): 0.202; relative viability ([2]; first compound 8 µM): 0.203; relative viability ([3]; first compound 0.08 µM): 0.575; relative viability ([3]; first compound 0.253 µM): 0.481; relative viability ([3]; first compound 2.53 µM): 0.521; relative viability ([3]; first compound 8 µM): 0.405; relative viability ([4]; first compound 0.08 µM): 0.717; relative viability ([4]; first compound 0.253 µM): 0.543; relative viability ([4]; first compound 2.53 µM): 0.594; relative viability ([4]; first compound 8 µM): 0.557; relative viability ([5]; first compound 0.08 µM): 0.875; relative viability ([5]; first compound 0.253 µM): 0.769; relative viability ([5]; first compound 2.53 µM): 0.89; relative viability ([5]; first compound 8 µM): 0.623; relative viability ([6]; first compound 0.253 µM): 0.732; relative viability ([6]; first compound 2.53 µM): 0.931; relative viability ([6]; first compound 8 µM): 0.625; relative viability ([7]; first compound 0.08 µM): 0.203; relative viability ([7]; first compound 0.253 µM): 0.219; relative viability ([7]; first compound 2.53 µM): 0.226; relative viability ([7]; first compound 8 µM): 0.208; relative viability ([8]; first compound 0.08 µM): 0.568; relative viability ([8]; first compound 2.53 µM): 0.42; relative viability ([8]; first compound 8 µM): 0.451; relative viability ([9]; first compound 0.08 µM): 0.371; relative viability ([9]; first compound 0.253 µM): 0.419; relative viability ([9]; first compound 2.53 µM): 0.355; relative viability ([9]; first compound 8 µM): 0.287; relative viability ([10]; first compound 0.08 µM): 0.092; relative viability ([10]; first compound 0.253 µM): 0.1; relative viability ([10]; first compound 2.53 µM): 0.11; relative viability ([10]; first compound 8 µM): 0.114
